Legend:
Type in all cases: cell-based, human
[1] = tested on: bioengineered tripartite vessels; assay: Aβ accumulation in tripartite bioengineered cerebral vessels (ELISA); details: GW3965 0.8 μM 72 hr, HDL 200 μg/ml luminal
Procedure: Bioengineered constructs were fabricated using a dynamic, semi-pulsatile flow bioreactor system. Tubular biodegradable scaffolds (length 1.5 cm and inner diameter 2 mm) were produced as described ([Robert et al., 2013a]; [Robert et al., 2017]) with minor modifications. Briefly, non-woven polyglycolic acid (PGA, Biomedical Structure, Warwick, RI) meshes (thickness: 1 mm and density: 70 mg/cc) were dip-coated with polycaprolactone (PCL) and polylactate (PLA) by dipping PGA mesh in a solution of 1.75% (w/w) PCL/PLA/tetrahydrofuran (THF) solution (Sigma-Aldrich, St. Louis, MO), shaped into tubes using heat, and externally coated with a 10% PCL/THF (w/w) solution. Scaffolds were sterilized by immersion in 70% ethanol for 30 min followed by three PBS washes and then immersion in advanced DMEM supplemented with 10% FBS for at least 12 hr. […]
All experiments were conducted under an approved clinical protocol (UBC Clinical Ethics Research Board H14-03357). […] Total protein concentration was assessed using the BCA assay (Thermofisher Scientific). […] ApoE concentrations were measured using ELISA as previously described ([Fan et al., 2016]). […]

[2] = tested on: apoE secretion by astrocytes; assay: Native apoE secretion by astrocytes in tripartite vessels (ELISA); details: astrocytes APOE3/E3, GW3965 1 μM circulated through lumen 72 hr
Procedure: All experiments were conducted under an approved clinical protocol (UBC Clinical Ethics Research Board H14-03357). Upon receipt of written informed consent, 100 ml of fasted blood was collected from normolipidemic healthy donors into vacutainer tubes containing EDTA. Plasma HDL (1.063-1.21 g/ml) was isolated by sequential potassium bromide gradient ultracentrifugation as described ([Robert et al., 2013b]). The purity of the HDL preparations was verified by sodium dodecyl sulfate-polyacrylamide gel electrophoresis (SDS-PAGE) followed by Coomassie blue staining to ensure no LDL or albumin contamination (not shown). Total protein concentration was assessed using the BCA assay (Thermofisher Scientific). Recombinant apoE2 and apoE4 were commercially purchased and solubilized following the manufacture's instructions (ABCAM, apoE2 ab55210, apoE3 ab123764 and apoE4 ab50243). […] ApoE concentrations were measured using ELISA as previously described ([Fan et al., 2016]). Briefly, ELISA plates were coated overnight with anti-human apoE mAB […] antibody (MabTech, Cincinnati, OH, RRID: AB_1925746) at 1.55 μg/mL in PBS at 4°C, washed two times with PBST (0.05% Tween 20 in PBS), and blocked with 0.1% Blocker A (MesoScale Discovery, Rockville, MA) in PBST. […] Fluorescence was read after 15 min at RT on an EnSpire 2300 Multilabel Plate Reader (325Ex/420Em).

[3] = tested on: bioengineered tripartite vessels; assay: Aβ transport across tripartite bioengineered cerebral vessels (ELISA); details: for transport of fibrils compared to monomers: tripartite vessels, pre-aggregated (37°C, 48 hr) or monomeric Aβ 1 μM anteluminal
Procedure: Bioengineered constructs were fabricated using a dynamic, semi-pulsatile flow bioreactor system. Tubular biodegradable scaffolds (length 1.5 cm and inner diameter 2 mm) were produced as described ([Robert et al., 2013a]; [Robert et al., 2017]) with minor modifications. Briefly, non-woven polyglycolic acid (PGA, Biomedical Structure, Warwick, RI) meshes (thickness: 1 mm and density: 70 mg/cc) were dip-coated with polycaprolactone (PCL) and polylactate (PLA) by dipping PGA mesh in a solution of 1.75% (w/w) PCL/PLA/tetrahydrofuran (THF) solution (Sigma-Aldrich, St. Louis, MO), shaped into tubes using heat, and externally coated with a 10% PCL/THF (w/w) solution. Scaffolds were sterilized by immersion in 70% ethanol for 30 min followed by three PBS washes and then immersion in advanced DMEM supplemented with 10% FBS for at least 12 hr. UCMFB were seeded at density of 2−3 × 10^6 cells/cm^2 on the inner surface of the scaffold using fibrin (fibrinogen 10 mg clottable protein/ml PBS and thrombin 100–10 mU/ml PBS) as a cell carrier that was added directly to the scaffold, then incubated under static conditions for a minimum of 3 days before exposure to dynamic flow. The flow of nutrient medium (Advanced DMEM supplemented with 10% FBS, 1% L-glutamine and 0.05% Pen/Strep) was directed through the lumen of the bioreactor circulation loop to mimic blood flow for a minimum of one week. Vascular intermediates were then seeded with HUVEC (1 × 10^6 cells/cm^2) and cultivated first in static conditions for a minimum of 5 days in EGM−2 supplemented as above. For bipartite vessels, after the static phase, vascular grafts were placed back in the bioreactor for 14 additional days with increasing medium flow to a final rate of 10 ml/min by the 10th day). For tripartite vessels, after the static phase after HUVEC addition, primary astrocytes were seeded (1 × 10^6 cells/cm^2) using fibrin as a cell carrier as above on the antelumen side of the tissue. After 5 min at RT, grafts were placed under flow conditions with EGM-2 supplemented as above in the circulation chamber and complete astrocyte medium in the tissue chamber for 14 additional days with increasing medium flow to 10 ml/min by the 10th day.
The HFIP was removed by evaporation overnight and stocks were stored at −20°C. On the day of the assay, soluble monomers were prepared by reconstituting the peptide film in DMSO to 5 mM, diluted further to 100 µM in RPMI without FBS. 100 μl of Aβ solution was injected in the tissue chamber containing 900 μl of DMEM (Gibco) without FBS to the desired concentration using a syringe under flow conditions. […] For luminal recovery, 100 μl circulating medium was collected at the indicated time.
All experiments were conducted under an approved clinical protocol (UBC Clinical Ethics Research Board H14-03357). Upon receipt of written informed consent, 100 ml of fasted blood was collected from normolipidemic healthy donors into vacutainer tubes containing EDTA. Plasma HDL (1.063–1.21 g/ml) was isolated by sequential potassium bromide gradient ultracentrifugation as described ([Robert et al., 2013b]). […] Total protein concentration was assessed using the BCA assay (Thermofisher Scientific). Recombinant apoE2 and apoE4 were commercially purchased and solubilized following the manufacture’s instructions (ABCAM, apoE2 ab55210, apoE3 ab123764 and apoE4 ab50243). […] ApoE concentrations were measured using ELISA as previously described ([Fan et al., 2016]). […]

[4] = tested on: NO synthase; assay: NO measurement: conversion of L-3H-arginine to L-3H-citruline in tripartite vessels
Procedure: NO synthesis was measured as described ([Robert et al., 2013a]) using a commercial NOS activity assay kit (Caymenchemical, Ann Arbor, MI). Briefly, a 2–3 mm ring of vascular tissue was mechanically ground in 150 μl of ice cold homogenized buffer (25 mM Tris-Cl, pH7.4, 1 mM EDTA and 1 mM EGTA) and centrifuged 15 min at 4°C at 10,000 g. The supernatant was aliquoted and incubated in reaction buffer containing 25 mM Tris-Cl, pH7.4, 0.25 mM EDTA, 0.6 mM CaCl2, 1 mM NADP, 200 nM calmodulin, 3 µM tetrahydrobiopterin, 1 µM flavin adenine dinucleotide, 1 µM flavin adenine monoucleotide and 0.2 µCi L-^3H-arginine; PerkinElmer, Waltham, MA) in the presence of 10 nM acetylcholine (Ach), 0.2 mg/ml HDL or 1 mM L-NG-nitroarginine methyl ester (L-NAME). After 60 min at 37°C, the reaction was stopped by adding 400 μl of stop buffer ([…] HEPES, 5 mM EDTA, pH 5.5). The solution was loaded onto an ion exchange column equilibrated with stop buffer to separate L-^3H-citruline from L-^3H-arginine. Scintillation mix (Ultimate Gold, PerkinElmer) was added to the supernatant and counted using LS6500 β-counter (Beckman Coulter, Brea, CA). The percent citrulline formed was calculated as follows: % conversion = (cpm reaction-cpm background)/cpm total *100.

[5] = tested on: endothelial barrier of bioengineered vessels; assay: Endothelium integrity: Evans blue extravasation; details: 0.5% in circulation loop 10 min, PBS wash 20 min
Procedure: Evans blue (Sigma-Aldrich) was injected at a final concentration of 0.5% in the circulation loop of the bioreactor for 10 min followed by continuous PBS washing for 20 min. Vessels were cut open longitudinally and en face preparations were analysed macroscopically with photo documentation. Restriction of paracellular transport was determined by measuring FITC dextran extravasation to the tissue chamber as described ([Gaillard et al., 2001]). […] After 1 hr tissue media was collected, fluorescent was read at RT on an EnSpire 2300 Multilabel Plate Reader (492Ex/518Em) and the permeability coefficient (Papp) was calculated using the following equation: Papp=(dQ/dt)*(1/A*C0*60) where dQ/dt is the amount of FITC-dextran transported per minute (ng/min), A is the surface area of the tissue (cm [[Attems and Jellinger, 2014]]), C0 is the initial concentration of FITC-Dextran (ng/ml) and 60 is the conversion from minutes to seconds.

[6] = tested on: bioengineered bipartite vessels; assay: Aβ transport from anteluminal tissue chamber to luminal circulation across bipartite vessels (ELISA); details: 1 μM monomers anteluminal, luminal medium sampled over 4 hr
Procedure: Bioengineered constructs were fabricated using a dynamic, semi-pulsatile flow bioreactor system. Tubular biodegradable scaffolds (length 1.5 cm and inner diameter 2 mm) were produced as described ([Robert et al., 2013a]; [Robert et al., 2017]) with minor modifications. Briefly, non-woven polyglycolic acid (PGA, Biomedical Structure, Warwick, RI) meshes (thickness: 1 mm and density: 70 mg/cc) were dip-coated with polycaprolactone (PCL) and polylactate (PLA) by dipping PGA mesh in a solution of 1.75% (w/w) PCL/PLA/tetrahydrofuran (THF) solution (Sigma-Aldrich, St. Louis, MO), shaped into tubes using heat, and externally coated with a 10% PCL/THF (w/w) solution. Scaffolds were sterilized by immersion in 70% ethanol for 30 min followed by three PBS washes and then immersion in advanced DMEM supplemented with 10% FBS for at least 12 hr. UCMFB were seeded at density of 2−3 × 10^6 cells/cm^2 on the inner surface of the scaffold using fibrin (fibrinogen 10 mg clottable protein/ml PBS and thrombin 100–10 mU/ml PBS) as a cell carrier that was added directly to the scaffold, then incubated under static conditions for a minimum of 3 days before exposure to dynamic flow. The flow of nutrient medium (Advanced DMEM supplemented with 10% FBS, 1% L-glutamine and 0.05% Pen/Strep) was directed through the lumen of the bioreactor circulation loop to mimic blood flow for a minimum of one week. […]

[7] = tested on: bioengineered bipartite vessels; assay: Aβ fibrillization in bioengineered vessels (Thioflavin-S staining, Thioflavin-T quantification)

In the case of `O=C(O)Cc1cccc(OCCCN(Cc2cccc(C(F)(F)F)c2Cl)CC(c2ccccc2)c2ccccc2)c1` [GW3965], the “effect on accumulation of Aβ40 within tripartite tissues after 24 hr” value ([1]; Aβ40 1 μM anteluminal) is reported as “neither GW3965, HDL, nor both GW3965 and HDL affected accumulation”, the “effect on accumulation of Aβ42 within tripartite tissues after 24 hr” value ([1]; Aβ42 1 μM anteluminal) is reported as “neither GW3965, HDL, nor both GW3965 and HDL affected accumulation” and the “secretion of native apoE into medium” value [2] is reported as “significantly stimulated the secretion of native apoE”. For the same compound, the “effect on Aβ40 transport through tripartite vessels over 4 hr” value ([3]; Aβ40 1 μM anteluminal, GW3965 0.8 μM 72 hr, HDL 200 μg/ml luminal) was “neither GW3965 alone nor HDL alone modified the rate” and the “effect on Aβ42 transport through tripartite vessels over 4 hr” value ([3]; Aβ42 1 μM anteluminal, GW3965 0.8 μM 72 hr, HDL 200 μg/ml luminal) was “neither GW3965 alone nor HDL alone modified the rate”.

For `COC(=O)[C@@H](N)CCCNC(N)=N[N+](=O)[O-]` [L-NAME, L-NG-nitroarginine methyl ester], the “NO production in the presence of NO synthase inhibitor” value ([4]; 1 mM L-NAME with Ach or HDL stimulation, 60 min) was “the conversion was blocked”.

With “Aβ40 fibrils: Aβ40 incubated at 37°C for 48 hr after reconstitution in RPMI” the “transport of fibrils compared to monomers” value ([3]; over 4 hr) was “significantly slower transport”.

“Aβ42 fibrils: Aβ42 incubated at 37°C for 48 hr after reconstitution in RPMI” was tested, and the “transport of fibrils compared to monomers” value ([3]; over 4 hr) was “significantly slower transport”.

`Cc1cc(-c2ccc(/N=N/c3ccc4c(S(=O)(=O)O)cc(S(=O)(=O)O)c(N)c4c3O)c(C)c2)ccc1/N=N/c1ccc2c(S(=O)(=O)O)cc(S(=O)(=O)O)c(N)c2c1O` [Evans blue] was tested, and the “Evans blue penetration into tissue without EC” value ([5]; tissue prepared without EC) was “penetrated into tissue prepared without EC” and the “Evans blue penetration into vessels with endothelium” value ([5]; vessels seeded with EC) was “excluded”.

In the case of “Aβ42: Recombinant Aβ42 peptide (California Peptide Research), soluble monomers”, the “Aβ recovery into circulation medium, tripartite compared to bipartite vessels” value ([3]; 1 μM monomers anteluminal, over 4 hr) is reported as “increased”, the “Aβ transport into circulating medium, bioengineered vessels versus scaffold-only controls” value [6] is reported as “transported at a slower rate” and the “beta-sheet formation in tissue lysates (Thioflavin-T)” value ([7]; 1 μM monomers anteluminal, RIPA lysate, 20 μM Thioflavin-T, ex 440 nm / em 490 nm) is reported as “increasing signal over time”. The “Aβ fibrillization in the bioengineered vessels (Thioflavin-S)” value ([7]; monomers 0, 0.1, 1.0 and 10 μM anteluminal, 48 hr, Thioflavin-S staining) was “dose-dependent fibrillization”.

`CC(=O)OCC[N+](C)(C)C` [acetylcholine] was tested, and the “NO production: conversion of L-3H-arginine to L-3H-citruline” value ([4]; 10 nM acetylcholine or 200 μg/ml HDL, 60 min at 37°C) was “significant increase”.

Source: paper PMC5634784, “Clearance of beta-amyloid is facilitated by apolipoprotein E and circulating high-density lipoproteins in bioengineered human vessels” (eLife, 2017)
